According to patent US20070134660A1, “Methods for identifying modulators of kinesin activity” (ROSETTA INPHARMATICS LLC, priority 2003, published 2007):

Assays:
[1] = molecular target: T1, KIF3A (SEQ ID NO:16) (Homo sapiens, UniProt Q9Y496); assay: KIF3A motor domain ATPase assay; assay type: biochemical; details: n = 2
T1 construct: His6 (printed only as 'H')

[2] = molecular target: T2, MKLP-1 (SEQ ID NO:20) (Homo sapiens, UniProt Q02241); assay: MKLP-1 motor domain ATPase assay; assay type: biochemical; details: read-out: uKHC, nKHC, CENP-E, MKLP-1, KIF1B, MCAK ATPase IC50
T2 construct: His6 (printed only as 'H')
T2 sequence (Q02241 with tags, fused parts or gaps): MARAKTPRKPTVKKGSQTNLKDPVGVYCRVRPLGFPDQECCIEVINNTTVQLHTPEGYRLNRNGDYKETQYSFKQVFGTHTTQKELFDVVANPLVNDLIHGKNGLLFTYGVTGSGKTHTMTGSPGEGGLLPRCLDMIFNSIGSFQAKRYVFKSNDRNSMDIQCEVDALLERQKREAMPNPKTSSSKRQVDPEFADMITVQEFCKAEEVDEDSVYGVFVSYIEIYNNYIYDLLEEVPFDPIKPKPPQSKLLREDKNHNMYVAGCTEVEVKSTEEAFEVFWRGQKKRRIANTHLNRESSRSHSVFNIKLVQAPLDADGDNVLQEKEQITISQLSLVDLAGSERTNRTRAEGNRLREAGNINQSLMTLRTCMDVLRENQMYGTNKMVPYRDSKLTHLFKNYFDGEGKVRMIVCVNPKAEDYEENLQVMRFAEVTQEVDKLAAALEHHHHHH

[3] = tested on: HeLa cells; assay: alamarBlue cell growth assay, candidate KIF14 modulators in HeLa cells; assay type: cell-based, human; details: 72 hours; for IC50: Homo sapiens, HeLa, compounds 1 and 2: submaximal inhibition
Description: alamarBlue™ Assay for Cell Growth: The alamarBlue™ assay is a measure of cellular respiration and is used as a measure of live cell number. The internal environment of the proliferating cell is more reduced than that of non-proliferating cells. Specifically, the ratios of NADPH/NADP, FADH/FAD, FMNH/FMN, and NADH/NAF increase during proliferation. alamarBlue™ can be reduced by these metabolic intermediates and, therefore, can be used to monitor cell proliferation.
HeLa cells were plated at a density of 2000/cells per well in 10% DMEM in a 96-well plate (Costar, Cat. No. 3606) 20 hours prior to treatment with a KIF14 inhibitory compound in a series of dilutions (20 microliters of 11-fold concentrated solution of the compound added to 200 microliters of media). The cells were incubated at 37° C. for 72 hours prior to replacement of 100 microliters per well of the media with 10% (vol/vol) alamarBlue™ reagent. After incubation for 2 hours at 37° C., the plates were read on a spectrofluorimeter SpectroMax Gemini (excitation 544 nm, emission 590 nm). The background value (averaged from wells with no cells) was subtracted from each reading.

T1 sequence (Q9Y496 with tags, fused parts or gaps): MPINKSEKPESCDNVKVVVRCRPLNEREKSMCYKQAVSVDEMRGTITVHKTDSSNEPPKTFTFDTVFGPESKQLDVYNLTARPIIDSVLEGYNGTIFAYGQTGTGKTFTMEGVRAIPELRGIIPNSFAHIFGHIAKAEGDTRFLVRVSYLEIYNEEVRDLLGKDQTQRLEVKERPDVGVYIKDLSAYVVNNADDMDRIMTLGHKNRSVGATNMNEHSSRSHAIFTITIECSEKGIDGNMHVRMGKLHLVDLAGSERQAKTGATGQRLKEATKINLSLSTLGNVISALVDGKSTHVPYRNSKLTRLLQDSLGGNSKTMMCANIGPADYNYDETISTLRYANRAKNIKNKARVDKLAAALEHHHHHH

Structure (SMILES)	IC50 [1]	IC50 [2]	IC50 [3]	Growth Inhibition in HeLa Cells ([3]; [Compound] 19.5 nm)	Growth Inhibition in HeLa Cells ([3]; [Compound] 39.1 nm)	Growth Inhibition in HeLa Cells ([3]; [Compound] 78.1 nm)	Growth Inhibition in HeLa Cells ([3]; [Compound] 156.2 nm)	Growth Inhibition in HeLa Cells ([3]; [Compound] 312.5 nm)	Growth Inhibition in HeLa Cells ([3]; [Compound] 625 nm)	Growth Inhibition in HeLa Cells ([3]; [Compound] 1250 nm)	Growth Inhibition in HeLa Cells ([3]; [Compound] 2500 nm)	Growth Inhibition in HeLa Cells ([3]; [Compound] 5000 nm)	Growth Inhibition in HeLa Cells ([3]; [Compound] 10000 nm)
CC(C)c1ccc(/C=N/NC(N)=S)cc1[N+](=O)[O-] [compound 4, 4-isopropyl-3-nitrobenzaldehyde thiosemicarbazone]	1550 nM	> 40000 nM	–	–	–	–	–	–	–	–	–	–	–
NC(=S)N/N=C/c1ccc(C2CCCCC2)cc1 [compound 3, 4-cyclohexylbenzaldehyde thiosemicarbazone]	699 nM	> 40000 nM	2800 nM	8.97%	5.97%	8.16%	6.91%	8.88%	12.32%	7.53%	44.36%	83.84%	95.02%
CC(C)c1ccc(/C=N/NC(N)=S)cc1 [compound 2, 4-isopropylbenzaldehyde thiosemicarbazone]	31000 nM	> 40000 nM	–	–	–	–	–	–	–	–	–	–	–
NC(=S)N/N=C\c1ccc(-c2ccccc2)cc1 [compound 1, 1,1′-biphenyl-4-carbaldehyde thiosemicarbazone]	631 nM	> 40000 nM	1000 nM	−3.58%	−4.74%	−2.50%	5.29%	10.32%	12.76%	19.73%	51.68%	48.18%	40.98%
